Results on two compounds are retold here after ChEMBL document CHEMBL4507319 (2021).

The target of assay [1] is Sigma intracellular receptor 2 (Homo sapiens, UniProt Q5BJF2). Particulars: Compound concentration 10.0 uM.
For assay [2], the system named is Epidermal growth factor receptor (Homo sapiens), P00533 [UNDEFINED MUTATION]. Particulars: Compound concentration 1000.0 nM.
Assay [3] concerns the target Misshapen-like kinase 1 (Homo sapiens) (UniProt Q8N4C8). Particulars: Compound concentration 1000.0 nM.
For assay [4], the target named is 5'-AMP-activated protein kinase catalytic subunit alpha-1 (Homo sapiens, UniProt Q13131). Particulars: Compound concentration 1000.0 nM.
5'-AMP-activated protein kinase catalytic subunit alpha-1, sequence (Q13131 whole entry, looked up): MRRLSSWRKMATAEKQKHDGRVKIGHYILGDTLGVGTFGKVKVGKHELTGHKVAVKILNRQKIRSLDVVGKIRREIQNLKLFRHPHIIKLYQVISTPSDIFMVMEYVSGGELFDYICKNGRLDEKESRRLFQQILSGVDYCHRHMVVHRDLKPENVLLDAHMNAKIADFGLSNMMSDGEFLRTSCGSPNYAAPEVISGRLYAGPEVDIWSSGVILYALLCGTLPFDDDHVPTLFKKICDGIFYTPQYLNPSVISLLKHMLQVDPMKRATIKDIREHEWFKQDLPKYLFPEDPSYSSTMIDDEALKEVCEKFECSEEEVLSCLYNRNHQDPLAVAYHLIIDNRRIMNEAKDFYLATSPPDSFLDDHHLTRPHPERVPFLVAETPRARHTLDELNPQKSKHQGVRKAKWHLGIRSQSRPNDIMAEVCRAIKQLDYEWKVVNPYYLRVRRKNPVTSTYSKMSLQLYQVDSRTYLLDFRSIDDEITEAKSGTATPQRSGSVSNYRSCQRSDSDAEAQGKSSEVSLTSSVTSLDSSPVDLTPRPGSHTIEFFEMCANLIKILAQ
The target in assay [5] is D(1B) dopamine receptor (Homo sapiens) (UniProt P21918). Conditions: Compound concentration 10.0 uM.
Assay [6] addresses T1, Ephrin type-A receptor 8 (Homo sapiens) (UniProt P29322).
T1 sequence (whole entry): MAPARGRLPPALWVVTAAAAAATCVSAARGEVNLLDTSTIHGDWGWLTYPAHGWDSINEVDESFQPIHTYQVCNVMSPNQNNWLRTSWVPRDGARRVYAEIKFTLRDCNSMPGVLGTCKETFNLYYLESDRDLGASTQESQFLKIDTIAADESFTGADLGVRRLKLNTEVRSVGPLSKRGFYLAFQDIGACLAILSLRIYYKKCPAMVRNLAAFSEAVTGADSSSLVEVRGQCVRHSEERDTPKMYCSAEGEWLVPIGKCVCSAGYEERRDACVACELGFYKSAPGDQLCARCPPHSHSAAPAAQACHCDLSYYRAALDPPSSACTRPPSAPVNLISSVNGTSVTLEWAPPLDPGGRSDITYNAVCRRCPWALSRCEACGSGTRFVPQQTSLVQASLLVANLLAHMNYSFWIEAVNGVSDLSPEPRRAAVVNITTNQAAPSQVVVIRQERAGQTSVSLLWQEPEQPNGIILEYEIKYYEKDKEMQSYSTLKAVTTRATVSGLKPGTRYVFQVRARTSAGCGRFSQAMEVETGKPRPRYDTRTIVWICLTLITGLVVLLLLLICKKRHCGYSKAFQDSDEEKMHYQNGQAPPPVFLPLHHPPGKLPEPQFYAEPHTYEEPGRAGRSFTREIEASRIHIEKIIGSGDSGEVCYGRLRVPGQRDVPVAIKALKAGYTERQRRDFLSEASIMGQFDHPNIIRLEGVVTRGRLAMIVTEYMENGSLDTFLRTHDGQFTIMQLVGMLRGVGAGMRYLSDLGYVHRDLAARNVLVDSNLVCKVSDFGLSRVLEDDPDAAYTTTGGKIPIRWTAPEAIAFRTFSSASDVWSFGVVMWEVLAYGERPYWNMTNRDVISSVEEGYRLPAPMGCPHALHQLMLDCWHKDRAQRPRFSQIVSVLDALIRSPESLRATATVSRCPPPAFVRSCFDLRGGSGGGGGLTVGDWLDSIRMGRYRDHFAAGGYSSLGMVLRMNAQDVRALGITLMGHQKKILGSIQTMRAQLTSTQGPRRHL
Conditions: Compound concentration 1000.0 nM.

In assay [7] the target is Eukaryotic translation initiation factor 2-alpha kinase 1 (Homo sapiens) (UniProt Q9BQI3). Particulars: Compound concentration 1000.0 nM.
Eukaryotic translation initiation factor 2-alpha kinase 1 (Homo sapiens), sequence (Q9BQI3 whole entry): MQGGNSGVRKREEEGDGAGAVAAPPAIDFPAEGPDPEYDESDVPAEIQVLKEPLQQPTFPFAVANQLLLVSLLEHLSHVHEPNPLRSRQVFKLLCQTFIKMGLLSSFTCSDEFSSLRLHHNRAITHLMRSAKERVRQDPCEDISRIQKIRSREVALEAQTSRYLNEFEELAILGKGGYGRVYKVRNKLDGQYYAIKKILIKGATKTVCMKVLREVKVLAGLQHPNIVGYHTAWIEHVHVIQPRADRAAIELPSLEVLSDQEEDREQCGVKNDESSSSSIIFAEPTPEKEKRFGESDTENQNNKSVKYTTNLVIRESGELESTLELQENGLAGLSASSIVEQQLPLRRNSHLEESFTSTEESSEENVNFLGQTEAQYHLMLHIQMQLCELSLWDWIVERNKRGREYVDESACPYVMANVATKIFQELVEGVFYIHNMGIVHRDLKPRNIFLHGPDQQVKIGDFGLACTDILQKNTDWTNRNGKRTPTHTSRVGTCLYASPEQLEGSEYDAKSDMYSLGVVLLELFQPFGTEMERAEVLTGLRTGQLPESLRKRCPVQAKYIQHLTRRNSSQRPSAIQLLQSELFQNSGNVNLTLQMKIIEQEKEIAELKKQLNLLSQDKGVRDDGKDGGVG
In assay [8] the target is Peripheral plasma membrane protein CASK (Homo sapiens) (UniProt O14936). Particulars: Compound concentration 1000.0 nM.
Peripheral plasma membrane protein CASK (Homo sapiens), sequence (O14936 whole entry): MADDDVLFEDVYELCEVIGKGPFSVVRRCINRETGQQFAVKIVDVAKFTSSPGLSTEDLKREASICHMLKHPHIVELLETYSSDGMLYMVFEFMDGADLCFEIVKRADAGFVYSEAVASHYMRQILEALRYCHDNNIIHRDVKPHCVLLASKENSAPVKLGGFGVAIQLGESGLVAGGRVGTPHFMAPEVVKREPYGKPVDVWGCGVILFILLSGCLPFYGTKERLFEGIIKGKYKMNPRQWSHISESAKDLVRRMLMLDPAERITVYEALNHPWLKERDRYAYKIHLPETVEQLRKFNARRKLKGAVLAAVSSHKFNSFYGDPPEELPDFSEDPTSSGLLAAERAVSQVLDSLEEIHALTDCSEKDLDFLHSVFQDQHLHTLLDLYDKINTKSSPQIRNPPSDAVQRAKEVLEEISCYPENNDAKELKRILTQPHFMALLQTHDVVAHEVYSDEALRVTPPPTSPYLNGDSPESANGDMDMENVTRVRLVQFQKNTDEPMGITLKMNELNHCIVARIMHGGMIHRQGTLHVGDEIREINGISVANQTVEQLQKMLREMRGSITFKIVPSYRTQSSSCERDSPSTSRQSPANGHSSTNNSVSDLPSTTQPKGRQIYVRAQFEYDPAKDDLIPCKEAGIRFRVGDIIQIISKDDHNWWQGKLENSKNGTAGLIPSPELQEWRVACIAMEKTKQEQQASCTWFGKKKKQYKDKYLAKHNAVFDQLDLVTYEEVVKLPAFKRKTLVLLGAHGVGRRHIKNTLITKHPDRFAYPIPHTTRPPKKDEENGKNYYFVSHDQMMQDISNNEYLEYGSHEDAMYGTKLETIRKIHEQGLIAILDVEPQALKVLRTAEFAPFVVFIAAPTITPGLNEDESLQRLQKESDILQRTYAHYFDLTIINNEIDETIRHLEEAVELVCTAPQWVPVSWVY
Assay [9] addresses Death-associated protein kinase 1 (Homo sapiens) (UniProt P53355). Particulars: Compound concentration 1000.0 nM.
For assay [10], the target named is Myosin light chain kinase family member 4 (Homo sapiens) (UniProt Q86YV6). Conditions: Compound concentration 1000.0 nM.
Myosin light chain kinase family member 4 (Homo sapiens), sequence (Q86YV6 whole entry): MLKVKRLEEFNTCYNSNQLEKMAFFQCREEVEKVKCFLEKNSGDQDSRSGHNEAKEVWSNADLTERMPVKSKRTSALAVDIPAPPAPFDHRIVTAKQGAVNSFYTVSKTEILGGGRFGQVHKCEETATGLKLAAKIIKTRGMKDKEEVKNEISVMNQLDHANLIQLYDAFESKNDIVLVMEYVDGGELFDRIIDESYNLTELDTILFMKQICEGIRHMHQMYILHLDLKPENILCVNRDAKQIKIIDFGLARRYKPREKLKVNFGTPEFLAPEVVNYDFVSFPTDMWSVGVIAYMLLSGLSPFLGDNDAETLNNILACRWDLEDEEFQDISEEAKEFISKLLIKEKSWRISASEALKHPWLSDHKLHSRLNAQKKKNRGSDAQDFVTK
Assay [11] deals with Rho-associated protein kinase 1 (Homo sapiens) (UniProt Q13464). Particulars: Compound concentration 1000.0 nM.
Rho-associated protein kinase 1 (Homo sapiens), sequence (Q13464 2-1354 limits assumed): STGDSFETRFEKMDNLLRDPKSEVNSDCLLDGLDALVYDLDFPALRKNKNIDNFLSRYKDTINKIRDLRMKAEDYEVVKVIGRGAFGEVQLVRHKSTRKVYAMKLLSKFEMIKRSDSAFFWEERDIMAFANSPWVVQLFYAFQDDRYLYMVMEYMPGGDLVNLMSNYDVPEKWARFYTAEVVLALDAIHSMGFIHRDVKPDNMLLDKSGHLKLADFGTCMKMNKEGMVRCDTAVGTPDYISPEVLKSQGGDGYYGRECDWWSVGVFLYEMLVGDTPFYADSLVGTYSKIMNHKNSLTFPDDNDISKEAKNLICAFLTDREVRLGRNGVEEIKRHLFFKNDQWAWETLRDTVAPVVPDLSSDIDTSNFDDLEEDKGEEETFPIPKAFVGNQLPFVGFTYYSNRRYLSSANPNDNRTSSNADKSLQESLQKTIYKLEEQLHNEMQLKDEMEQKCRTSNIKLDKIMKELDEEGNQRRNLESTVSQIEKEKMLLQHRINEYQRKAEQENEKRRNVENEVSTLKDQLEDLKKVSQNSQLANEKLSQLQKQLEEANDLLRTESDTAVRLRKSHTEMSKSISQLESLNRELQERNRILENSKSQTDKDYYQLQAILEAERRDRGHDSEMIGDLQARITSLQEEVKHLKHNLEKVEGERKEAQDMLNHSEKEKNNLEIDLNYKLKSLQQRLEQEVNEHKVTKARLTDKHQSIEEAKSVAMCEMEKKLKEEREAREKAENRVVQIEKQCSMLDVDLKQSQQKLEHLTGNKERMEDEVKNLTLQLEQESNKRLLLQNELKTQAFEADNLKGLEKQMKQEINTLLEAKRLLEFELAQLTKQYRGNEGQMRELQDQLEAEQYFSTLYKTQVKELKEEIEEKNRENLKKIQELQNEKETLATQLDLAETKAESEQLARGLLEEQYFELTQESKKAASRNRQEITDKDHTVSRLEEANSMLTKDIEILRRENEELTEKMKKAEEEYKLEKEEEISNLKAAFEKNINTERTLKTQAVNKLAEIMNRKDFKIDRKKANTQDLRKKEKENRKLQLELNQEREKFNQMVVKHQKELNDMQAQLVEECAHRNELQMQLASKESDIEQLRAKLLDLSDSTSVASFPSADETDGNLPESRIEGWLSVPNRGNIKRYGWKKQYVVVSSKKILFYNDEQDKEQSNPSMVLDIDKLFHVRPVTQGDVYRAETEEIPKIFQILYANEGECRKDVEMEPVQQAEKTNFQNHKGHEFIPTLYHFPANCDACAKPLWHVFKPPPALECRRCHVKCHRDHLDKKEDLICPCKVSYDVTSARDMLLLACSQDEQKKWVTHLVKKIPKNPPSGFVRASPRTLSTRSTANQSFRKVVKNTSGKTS
The target of assay [12] is Cyclin-dependent kinase-like 3 (Homo sapiens) (UniProt Q8IVW4). Conditions: Compound concentration 1000.0 nM.
In assay [13] the target is Tyrosine-protein kinase CSK (Homo sapiens) (UniProt P41240). Conditions: Compound concentration 1000.0 nM.
Assay [14] deals with T2, Serine/threonine-protein kinase 17A (Homo sapiens) (UniProt Q9UEE5).
T2 sequence (whole entry): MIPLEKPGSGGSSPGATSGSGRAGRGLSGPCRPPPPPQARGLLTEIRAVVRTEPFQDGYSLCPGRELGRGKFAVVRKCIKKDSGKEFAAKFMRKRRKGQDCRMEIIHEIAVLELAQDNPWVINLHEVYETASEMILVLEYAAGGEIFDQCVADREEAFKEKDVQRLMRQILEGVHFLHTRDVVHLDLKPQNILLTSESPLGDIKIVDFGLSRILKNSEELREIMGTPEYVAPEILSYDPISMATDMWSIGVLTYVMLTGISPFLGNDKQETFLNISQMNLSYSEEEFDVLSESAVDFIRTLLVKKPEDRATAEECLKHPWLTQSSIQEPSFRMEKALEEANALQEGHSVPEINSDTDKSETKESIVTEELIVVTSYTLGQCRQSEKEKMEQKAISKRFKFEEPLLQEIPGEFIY
Particulars: Compound concentration 1000.0 nM.

Epidermal growth factor receptor (Homo sapiens), P00533 [UNDEFINED MUTATION], sequence (P00533 whole entry, looked up, change not shown): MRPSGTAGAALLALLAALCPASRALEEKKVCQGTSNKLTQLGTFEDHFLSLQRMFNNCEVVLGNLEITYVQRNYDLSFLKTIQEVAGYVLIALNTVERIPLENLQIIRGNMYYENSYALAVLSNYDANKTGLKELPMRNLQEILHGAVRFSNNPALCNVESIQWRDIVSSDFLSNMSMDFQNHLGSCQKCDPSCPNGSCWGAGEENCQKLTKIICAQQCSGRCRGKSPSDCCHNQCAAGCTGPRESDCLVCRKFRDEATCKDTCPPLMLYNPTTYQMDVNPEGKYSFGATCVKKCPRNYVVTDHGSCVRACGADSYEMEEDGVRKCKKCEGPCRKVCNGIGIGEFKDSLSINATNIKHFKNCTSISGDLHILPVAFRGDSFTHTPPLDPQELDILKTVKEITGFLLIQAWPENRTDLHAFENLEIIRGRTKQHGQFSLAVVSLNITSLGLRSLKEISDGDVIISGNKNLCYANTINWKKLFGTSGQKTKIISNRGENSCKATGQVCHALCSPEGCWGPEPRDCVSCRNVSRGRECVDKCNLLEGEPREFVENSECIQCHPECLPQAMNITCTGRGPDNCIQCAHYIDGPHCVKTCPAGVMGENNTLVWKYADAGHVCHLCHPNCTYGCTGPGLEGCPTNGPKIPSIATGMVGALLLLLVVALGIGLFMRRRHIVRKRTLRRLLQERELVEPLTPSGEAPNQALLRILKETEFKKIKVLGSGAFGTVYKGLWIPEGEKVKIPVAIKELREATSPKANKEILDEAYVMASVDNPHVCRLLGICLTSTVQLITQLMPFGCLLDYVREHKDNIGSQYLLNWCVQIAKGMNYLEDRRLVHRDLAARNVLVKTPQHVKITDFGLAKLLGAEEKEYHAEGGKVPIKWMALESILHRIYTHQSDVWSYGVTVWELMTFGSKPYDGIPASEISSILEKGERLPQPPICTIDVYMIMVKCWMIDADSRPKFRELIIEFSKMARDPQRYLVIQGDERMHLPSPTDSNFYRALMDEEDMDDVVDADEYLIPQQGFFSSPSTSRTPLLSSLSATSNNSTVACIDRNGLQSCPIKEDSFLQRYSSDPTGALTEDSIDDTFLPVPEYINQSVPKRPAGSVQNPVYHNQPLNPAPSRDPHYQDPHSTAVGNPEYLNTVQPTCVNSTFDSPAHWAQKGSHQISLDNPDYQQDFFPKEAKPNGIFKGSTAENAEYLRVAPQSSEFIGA

As for `CC1=C(C#N)C(c2ccc3c(c2)c(NC(=O)c2ccccc2C)nn3C)C(C#N)=C(C)N1` [BAY-974], the inhibition – broadly, the change of the read-out against control, counted positive when it falls – in assay [1] is 51.2%; in assay [5], 14.6%. Besides, the residual activity in assay [2] was 73%; in assay [3] it was 96%; in assay [4] it was 77%; in assay [6] it was 100%; in assay [7], 100%; in assay [8], 67%. Further, the residual activity in assay [9] was 89%; in assay [10] it was 100%; in assay [11], 100%; in assay [12], 79%; in assay [13], 85%; in [14], 82%.

For the compound `CCc1ccccc1C(=O)Nc1n[nH]c2c(C)c(F)c(C3C(C#N)=C(C)N(C)C(C)=C3C#N)cc12` [BAY-3827], the inhibition in [1] was 78.3%; in [5] it was 8.47%. Besides, the residual activity in [2] is 79%; in assay [3], 99%; in [4] it was 7.5%; in assay [6] it was 79%; in assay [7], 100%; in assay [8] it was 81%. Also, the residual activity in assay [9] was 100%; in [10] it was 100%; in [11] it was 100%; in assay [12] it was 87%; in assay [13] it was 98%; in [14] it was 89%.
